Among the test systems are OVCAR-3 ovarian; BT-549 breast; RPMI-8226 leukemia; SK-MEL-2 melanoma; SNB-19 CNS; MCF7 breast; UO-31 renal; MDA-MB-435; RXF 393 renal; OVCAR-8 ovarian.
Test in all cases: growth of human tumour cells (NCI), 48 h

The structures appear in SMILES notation.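 Method: 48-hour compound exposure of cells in 96-well plates, five concentrations, linear interpolation of endpoints. Definition used: TGI = concentration required for complete inhibition of growth.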 A value given as a limit tells only on which side of the number the result lay.

As to `CCOc1ccc(Nc2nc(N)nc(N)c2N=O)cc1`, the TGI in the test with OVCAR-3 ovarian, in the test with BT-549 breast, with RPMI-8226 leukemia, in the test on SK-MEL-2 melanoma, in the test on SNB-19 CNS and with MCF7 breast was greater than 100 µM in each case. Further, the TGI with UO-31 renal is 83.3 µM; in the test with MDA-MB-435, greater than 100 µM; with RXF 393 renal it was greater than 100 µM; with OVCAR-8 ovarian it was greater than 100 µM.
Turning to `CN(C)c1ccc(/C=C2\N=C(c3ccccc3)N(c3nc4ccc(Sc5ccccc5)cc4[nH]3)C2=O)cc1`, the TGI in the test on OVCAR-3 ovarian is 59.3 µM; in the test on BT-549 breast, greater than 100 µM; with RPMI-8226 leukemia, 71.4 µM; with SK-MEL-2 melanoma, 60.3 µM; in the test on SNB-19 CNS it was greater than 100 µM; in the test with MCF7 breast, greater than 100 µM. The TGI in the test on UO-31 renal was greater than 100 µM; in the test on MDA-MB-435, 38.6 µM; in the test on RXF 393 renal it was greater than 100 µM; in the test with OVCAR-8 ovarian it was greater than 100 µM.
Consider `O=[N+]([O-])C(/C=C(\Cl)[N+](=O)[O-])=C(Nc1ccccc1)Nc1ccccc1`, for which the TGI with OVCAR-3 ovarian was determined as 17.3 µM; with BT-549 breast, 20.7 µM; with RPMI-8226 leukemia, 6.35 µM; with SK-MEL-2 melanoma, 35.8 µM; with SNB-19 CNS, 32.8 µM; in the test on MCF7 breast it was 14.6 µM. The TGI in the test on UO-31 renal was 25.3 µM; with MDA-MB-435, 17.4 µM; in the test on RXF 393 renal, 10.5 µM; in the test with OVCAR-8 ovarian, 21.6 µM.
With `Cc1c(-c2ccccc2)oc(=O)c2ccccc12`, the TGI is 41.8 µM in the test on OVCAR-3 ovarian; 39.2 µM with BT-549 breast; 36.5 µM in the test with RPMI-8226 leukemia; 38.5 µM in the test on SK-MEL-2 melanoma; greater than 100 µM in the test with SNB-19 CNS; greater than 100 µM in the test with MCF7 breast. Moreover, the TGI in the test with UO-31 renal was 43.7 µM; with MDA-MB-435 it was 34.6 µM; with RXF 393 renal, 37.7 µM; in the test on OVCAR-8 ovarian it was 93 µM.
As for `CCOC(=O)CCC(C(=O)OCC)n1nnc2cc(Nc3c(C)[n+]([O-])c4cc(Cl)ccc4[n+]3[O-])ccc21` (stereo not given), the TGI was greater than 100 µM in the test with OVCAR-3 ovarian; greater than 100 µM in the test with BT-549 breast; greater than 100 µM in the test with RPMI-8226 leukemia; greater than 100 µM with SK-MEL-2 melanoma; greater than 100 µM in the test on SNB-19 CNS; 80 µM in the test on MCF7 breast. In addition, the TGI with UO-31 renal, with MDA-MB-435, with RXF 393 renal and in the test with OVCAR-8 ovarian was greater than 100 µM throughout.
In the case of `Cc1cc(S(=O)(=O)NC2=NCc3c(F)cccc3N2)c(S)cc1Cl`, the TGI in the test with OVCAR-3 ovarian, with BT-549 breast, in the test on RPMI-8226 leukemia, with SK-MEL-2 melanoma, in the test on SNB-19 CNS and with MCF7 breast was greater than 100 µM in each case. In addition, the TGI in the test on UO-31 renal, in the test on MDA-MB-435, with RXF 393 renal and with OVCAR-8 ovarian was greater than 100 µM each time.
`Nc1ncnc2c1ncn2CCCNO`: the TGI in the test on OVCAR-3 ovarian, in the test on BT-549 breast, in the test with RPMI-8226 leukemia, with SK-MEL-2 melanoma, in the test with SNB-19 CNS and in the test with MCF7 breast was greater than 100 µM in each case. The TGI in the test on UO-31 renal, with MDA-MB-435, in the test with RXF 393 renal and in the test on OVCAR-8 ovarian was greater than 100 µM each time.
For the molecule `CC1CC[C@@]2(OC1)OC1C[C@H]3[C@@H]4CC=C5C[C@@H](OC6OC(CO)C(OC7OC(CO)C(O)C(O)C7O)C(O)C6OC6OC(C)C(O)C(O)C6O)CC[C@]5(C)[C@H]4CC[C@]3(C)C1[C@@H]2C` (stereo not given in full), the TGI was found to be 1.7 µM in the test with OVCAR-3 ovarian; 0.848 µM with BT-549 breast; 1.33 µM in the test on RPMI-8226 leukemia; 3.2 µM in the test with SK-MEL-2 melanoma; 3.92 µM with SNB-19 CNS; 1.36 µM in the test with MCF7 breast. Also, the TGI with UO-31 renal is 0.887 µM; in the test on MDA-MB-435 it was 1.29 µM; with RXF 393 renal it was 0.857 µM; with OVCAR-8 ovarian, 1.79 µM.
Take `CC[P+](c1ccccc1)(N(C)C)N(C)C`: the TGI with OVCAR-3 ovarian, in the test on BT-549 breast, in the test on RPMI-8226 leukemia, in the test on SK-MEL-2 melanoma, with SNB-19 CNS and with MCF7 breast was greater than 100 µM in each case. In addition, the TGI in the test on UO-31 renal, in the test on MDA-MB-435, in the test on RXF 393 renal and in the test with OVCAR-8 ovarian was greater than 100 µM in each case.
In the case of `CCOC(=O)NCC(=O)NCC(=O)NCC(N)=O`, the TGI in the test with OVCAR-3 ovarian, in the test with BT-549 breast, with RPMI-8226 leukemia, with SK-MEL-2 melanoma, with SNB-19 CNS and with MCF7 breast was greater than 100 µM in each case. The TGI in the test on UO-31 renal, in the test with MDA-MB-435, with RXF 393 renal and in the test with OVCAR-8 ovarian was greater than 100 µM each time.

The record behind these values is PubChem BioAssay (NCI).
